“Also recorded” adds a separate entry of the source.
Experiments:
[1] = test system: MEF2D binding sites in SKOv3 ovarian cancer cells; assay type: cell-based, human
Method: Genome-wide binding of MEF2D in SKOv3 ovarian cancer cells was then examined using chromatin immunoprecipitation sequencing (Chip-seq). […] To identify a MEF2D consensus recognition sequence in ovarian cancer cells, de novo-motif discovery analysis was performed.
Chip assays were performed using the Magna Chip A Kit (Millipore). […] Nuclei were isolated and sonicated to obtain 200-1000 bp DNA fragments using the QSONICA sonicator for 30 cycles with 10 seconds pulses at 100% amplitude with 2 min of incubation on ice between pulses. […] For ChIP-Sequence, 500 μg of chromatin per sample was immunoprecipitated with 40 μg of MEF2D antibody. Input determined from 1% of the cell lysate was used as a negative control. Purified and enriched DNA was quantified using real time quantitative PCR (RT-qPCR) with the following primers. […] Analysis of qPCR data was calculated using fold enrichment method (The ChIP signals are divided by the IgG antibody signals, 2^-DDCt).
Sequencing was performed by the Sequencing and Microarray Facility (SMF) at MD Anderson Cancer Center. […] Libraries were amplified by 8 cycles of PCR and then size distribution was assessed using the 4200 TapeStation High Sensitivity D1000 ScreenTape (Agilent Technologies) and quantified using the Qubit dsDNA HS Assay Kit (ThermoFisher). […] The raw reads were first preprocessed to remove sequencing adapters and low quality reads. […]

[2] = test system: SKOv3, OVCAR8, HCC5032, MDA-MB-231 cells; assay: DNA damage: γ-H2AX immunofluorescence and comet assay; assay type: cell-based, human
Method: (A) The Heatmap representation unsupervised hierarchical clustering of differentially expressed genes associated with DNA repair. […] (B) Analysis of DNA Repair and apoptosis genes. BRCA2, EXO1, FANCD2, LIG4, XRCC4, BAX, BCL2, CASP7, and TRADD were analyzed using RT-PCR in OVCAR8 ovarian and MDA-MB-231 breast cancer cells. […] (C) Quantification of DNA damage (γ-H2AX). Endogenous γ-H2AX was stained with anti-γ-H2AX antibody in the cells treated with single agent or combined for 8 hrs as indicated. […] Red indicates γ-H2AX and Blue-DAPI indicates nuclear stain. Representative images are presented (right). Bar 20 […]. Red γ-H2AX dots were quantified with OLYMPUS CellSens Dimension software. […] Bar 20 μm. (D) Detection of apoptosis using Annexin V/Propidium iodide (PI) staining.
(A) The heatmap of unsupervised hierarchical clustering of differently expressed genes associated with apoptosis. […] (B) Analysis of DNA repair and apoptosis gene. […] Representative experiments were from two independent experiment and 3 technical repeats per experiments. (C) Quantification of DNA damage using comet assay. […] Slides were then stained with Vista Green DNA dye and viewed using Olympus fluorescence microscope with FITC filter. Olive Tail Moment was measured using CaspLab1.2.3β2 software. […] Representative experiments were from three independent experiments with a minimum of 50 cells.
Cells were trypsinized and resuspended at 2×10^5/mL in cold PBS without Ca^2+ and Mg^2+. Cells were mixed with pre-warmed comet agarose at 1:10 (v/v) ratio. 10 uL of cell agarose mixture was plated onto comet slides pre-coated with 75 uL of agarose and chilled at 4° C. for 15 min to set. Cells were lysed in 25 mL of Lysis buffer at 4° C. for 2 hrs and washed with alkaline solution (pH 10). Comet slides were electrophoresed in cold alkaline solution at 20V for 15 min. […] Experiments were run in triplicate and Olive Tail Moment was measured using CaspLab1.2.β2 software (CaspLab.com). […] 50-200 Cells were measured for each treatment and experiments were repeated twice independently to ensure reproducibility. […]

[3] = test system: ovarian cancer cell lines; assay: cells; details: read-out: IC50, growth of ovarian cancer cell lines
[4] = test system: MEF2D binding to FANCD2, EXO1, XRCC4; assay: ChIP-qPCR of MEF2D binding to promoter/enhancer regions; assay type: cell-based, human; details: for MEF2D binding to EXO1 and XRCC4 promoter/enhancer regions: all cell lines tested; for MEF2D-association with the FANCD2 promoter/enhancer region: all four cell lines assessed
Method: (A) Alterations affecting MEF2 family genes in ovarian and breast cancer by TCGA analysis. […] Data and plots were obtained using cBioPortal (21, 58, 59). (B) MEF2D consensus DNA motifs. The MEF2 motif is enriched in MEF2D-binding sites in SKOv3 cells. (C) GO analysis of MEF2D-bound genes. […] (E) Chip and RT-qPCR analysis of FANCD2, EXO1, and XRCC4 genes. […] Chip pull-down samples were analyzed by RT-qPCR.
(A) MEF2D-binding sites in human ovarian cancer cells. (B) Chip analysis of FANCD2, EXO1, and XRCC4 genes. […] Chip pull-down samples were analyzed by RT-qPCR using as indicated.
Chip assays were performed using the Magna Chip A Kit (Millipore). […] Nuclei were isolated and sonicated to obtain 200-1000 bp DNA fragments using the QSONICA sonicator for 30 cycles with 10 seconds pulses at 100% amplitude with 2 min of incubation on ice between pulses. For individual ChIP assay, 100 μg of soluble chromatin per sample was immunoprecipitated with 8 μg of mouse IgG control antibody (Santa Cruz, sc-2025), 8 μg of rabbit control antibody (Millipore, PP64B), 8 μg of MEF2D antibody (Santa Cruz, sc-27115 3×), 8 μg of RNA polymerase II antibody (Abcam, ab817), 6 μg of Histone H3 (acetyl K27) antibody (Abcam, ab45173) or 6 μg of Histone H3 (tri methyl K4) (Abcam, ab8580). For ChIP-Sequence, 500 μg of chromatin per sample was immunoprecipitated with 40 μg of MEF2D antibody. Input determined from 1% of the cell lysate was used as a negative control. Purified and enriched DNA was quantified using real time quantitative PCR (RT-qPCR) with the following primers. FANCD2D Forward, 5′-ACCTGTTATGAGCGTGAAGTC-3′ (SEQ ID NO:1) and Reverse, 5′-GATGCAGGACTGTGCATTAGA-3′ (SEQ ID NO:2); EXD2 Forward, 5′-GGTCTGGCCTAAGGTTTCTTC-3′ (SEQ ID NO:3) and Reverse, 5′-CAG TTC ACG CTG GGT TCT T-3′ (SEQ ID NO:4); and XRCC Forward, 5′-GCAGTCTTCCTAGTCTCAACT-3′ (SEQ ID NO:5) and Reverse, 5′-TTGCCCTTCTAGGAGCTTAATG-3′ (SEQ ID NO:6). RT-qPCR was performed using iTaq Universal SYBR Green Supermix (Bio-Rad, 172-5124) in a CFX Connect RT-qPCR (Bio-Rad). Thermal cycling condition was as follows: 94° C. for 10 min, followed by 40 cycles of 94° C. for 20 sec, and 60° C. for 60 sec. Analysis of qPCR data was calculated using fold enrichment method (The ChIP signals are divided by the IgG antibody signals, 2^-DDCt).

organoid = assay: Organoid growth; assay type: cell-based
Method: To evaluate additive or synergistic interactions, a combination Index (CI value) was calculated with CalcuSyn software.

[5] = Toxicology / pre-clinical studies, hematologic toxicity; assay type: in vivo
MDA-MB-231 xenografts = assay: MDA-MB-231 mammary fat pad xenograft; assay type: in vivo, mice; details: 5 weeks treatment
Method: (§1) (^nsp>0.05, *p<0.05; ** p<0.01). […] (^nsp>0.05, *p<0.05; ** p<0.01). […] Scale bar, 50 μM.
Forty female nu/nu mice were injected with 0.8×10^6 MDA-MB-231 cells into their fourth mammary fat pads. […] Tumors were measured every week as noted above (SKOv3 xenograft models).

[6] = test system: MDA-MB-231 orthotopic xenografts; assay: MDA-MB-231 orthotopic xenografts (paclitaxel sensitivity study); assay type: in vivo, mice
[7] = test system: OVCAR8 and MDA-MB-231 xenograft tumors; assay: IHC of xenograft tumors at study termination; assay type: in vivo, mice
Method: as §1
Tumors growing as xenografts were collected for histology with H&E and IHC staining. Routine H&E staining detected high-grade ovarian cancer in ovarian cancer xenograft models and breast cancer morphology in the breast cancer xenograft model, respectively. IHC of OVCAR8 and MDA-MB-231 xenograft tumors at study termination recapitulated in vitro studies.
Formalin fixed and paraffin embedded mouse tissue sections were deparaffinized and rehydrated in gradient ethanol solutions. Antigens were retrieved in Rodent Decloaker (BioCare Medical, RD913M) and microwaved twice in an EZ Retriever System V3 (BioGenex) at 95° C. for 5 min. Tissues were blocked in PeroxAbolish (BioCare Medical, PXA969M) for 30 min, Rodent Block M (BioCare Medical, RBM961L) for 30 min, and 5% BSA in PBS for 30 min Tissues were incubated with primary antibody as indicated overnight at 4° C. VisUCyte HRP Polymer IgG (R&D Systems, VC001-025 for mouse, VC003-025 for rabbit) was applied for 30 min at room temperature followed by DAB chromogenesis (BioCare Medical, BDB2004L). Tissues were counter-stained with CAT hematoxylin (Thermo Fisher, CATHE-M) for 20 sec. The slides were then dehydrated through gradient ethanol solutions and two passes of xylene and sealed with Permount (Thermo Fisher, SP15-100).

DT40 PARP-1 −/− cells = assay: Dose-response in DT40 PARP-1 -/- cells; details: cells lacking PARP1/2
Method: Representative data are from three independent experiments with 4 technical repeats per experiment. […] The IC50 indicated on the curves was calculated using GraphPad Prism 8.
To further test this possibility, DT40 PARP-1 −/−cells that lack PARP enzyme activity (avian cells lack PARP2) were treated with SIK2 inhibitors or olaparib.

[8] = test system: SKOv3 and OVCAR8 SIK2 knock-out cells; assay: Olaparib dose-response in SIK2 knock-out cells; details: SIK2 knock-out by CRISPR/Cas9
Method: (§2) Representative experiments were from two independent experiments with four technical repeats per experiment. (B) Dose-response curves of olaparib in paired cancer cell lines with or without knockout of SIK2 (top) and with or without stable transfection of SIK2 (bottom). The median inhibitory concertation (IC50) of olaparib was calculated using GraphPad Prism 8. Representative experiments are from two independent experiments with four technical repeats per experiment. Western analysis confirmed either SIK2 knock out (top) or overexpression (bottom).
(§3) To exclude potential off-target effects of SIK2 inhibitors, SIK2 was knocked down by CRISPR/Cas9 and stable ectopic expression of SIK2 was established in SKOv3 and OVCAR8 ovarian cancer cells.
OVCAR8 and SKOv3 SIK2 knock out cell lines were established using CRISPR/Cas9 technology known in the art. Briefly, a plasmid with GFP containing Cas9 and the sgRNA expression were transfected to cancer cells. […] Transfected cells were isolated by FACS for single-cell culture 2-3 days after transfection, and then the cells were expanded and harvested for detection of the protein expression using western analysis.

[9] = test system: SKOv3 and OVCAR8 cells with stable ectopic expression of SIK2; assay: Olaparib dose-response in cells with stable ectopic SIK2 expression
Method: as §2, §3

SKOv3 xenografts = assay: SKOv3 subcutaneous xenograft; assay type: in vivo, mice; details: oral, five times per week, 4 weeks
Method: as §1

| Structure (SMILES) | MEF2D binding sites [1] [binding sites] | levels of γ-H2AX and tailed DNA [2] | IC50 [3] [nM] | MEF2D binding to EXO1 and XRCC4 promoter/enhancer regions [4] | MEF2D-association with the FANCD2 promoter/enhancer region [4] | organoid growth (organoid) | hematologic toxicity [5] | tumor burden / tumor volume (MDA-MB-231 xenografts) | survival of mice [6] | xenograft growth [6] | nuclear p-HDAC5 staining [7] | nuclear γ-H2AX staining [7] | sensitivity of DT40 PARP-1 −/− cells (DT40 PARP-1 −/− cells) | IC50 in SIK2 deficient cells compared to control cells [8] | IC50 in cells with stable ectopic expression of SIK2 [9] | tumor growth (SKOv3 xenografts) |
| --- | --- | --- | --- | --- | --- | --- | --- | --- | --- | --- | --- | --- | --- | --- | --- | --- |
| COc1c(F)cc(F)cc1-c1c[nH]c2ncc(-c3cnn(C4CCNCC4)c3)cc12 [Compound A, 3-(3,5-difluoro-2-methoxyphenyl)-5-(1-(piperidin-4-yl)-1H-pyrazol-4-yl)-1H-pyrrolo[2,3-b]pyridine] | 36 | modestly increased | 800 to 2600 | significantly decreased | decreased |  |  |  |  |  |  |  |  |  |  |  |
| COc1c(F)cc(F)cc1-c1c[nH]c2ncc(-c3cnn(C4CCN(S(C)(=O)=O)CC4)c3)cc12 [Compound B, 3-(3,5-difluoro-2-methoxyphenyl)-5-(1-(1-(methylsulfonyl)piperidin-4-yl)-1H-pyrazol-4-yl)-1H-pyrrolo[2,3-b]pyridine] |  | modestly increased | 800 to 2600 | significantly decreased | decreased | inhibits organoid growth inducing cell death | minimal hematologic toxicity; also recorded: little or no hematopoietic toxicity | tumor burden remained unchanged | prolonged the survival | inhibited xenograft growth | decreased | increased nuclear γ-H2AX staining |  |  |  |  |
| O=C(c1cc(Cc2n[nH]c(=O)c3ccccc23)ccc1F)N1CCN(C(=O)C2CC2)CC1 [Olaparib, reference compound] |  | modestly increased |  |  |  |  |  | tumor burden remained unchanged |  |  | not |  | resisted | lower IC50 | increased IC50 | significantly inhibited tumor growth |

— patent US20240082232A1, “COMPOSITIONS AND METHODS FOR TREATMENT OF OVARIAN AND BREAST CANCER” (Board of Regents, The University of Texas System, priority 2021, published 2024)
